The data set has as its system CCRIS mutagenicity, Ames/micronucleus/aberration tests. Nature of the data set: CCRIS mutagenicity studies.
[1] abbreviates: Test System: AMES SALMONELLA TYPHIMURIUM, Strain/Indicator: TA98, Metabolic Activation: NONE, Method: STANDARD PLATE.
The mark [2] stands for this setting: Test System: AMES SALMONELLA TYPHIMURIUM, Strain/Indicator: TA98, Metabolic Activation: RAT, LIVER, S-9, AROCLOR 1254, Method: STANDARD PLATE.
Setting [3] is: Test System: AMES SALMONELLA TYPHIMURIUM, Strain/Indicator: TA100, Metabolic Activation: NONE, Method: STANDARD PLATE.
Setting [4] is: Test System: AMES SALMONELLA TYPHIMURIUM, Strain/Indicator: TA100, Metabolic Activation: RAT, LIVER, S-9, AROCLOR 1254, Method: STANDARD PLATE.
The mark [5] stands for this setting: Test System: AMES SALMONELLA TYPHIMURIUM, Strain/Indicator: TA1535, Metabolic Activation: NONE, Method: STANDARD PLATE.
Setting [6] is: Test System: AMES SALMONELLA TYPHIMURIUM, Strain/Indicator: TA1535, Metabolic Activation: RAT, LIVER, S-9, AROCLOR 1254, Method: STANDARD PLATE.
Where [7] appears, read: Test System: AMES SALMONELLA TYPHIMURIUM, Strain/Indicator: TA1537, Metabolic Activation: NONE, Method: STANDARD PLATE.
Where [8] appears, read: Test System: AMES SALMONELLA TYPHIMURIUM, Strain/Indicator: TA1537, Metabolic Activation: RAT, LIVER, S-9, AROCLOR 1254, Method: STANDARD PLATE.
Setting [9] is: Test System: AMES SALMONELLA TYPHIMURIUM, Strain/Indicator: TA1538, Metabolic Activation: NONE, Method: STANDARD PLATE.
[10] abbreviates: Test System: AMES SALMONELLA TYPHIMURIUM, Strain/Indicator: TA1538, Metabolic Activation: RAT, LIVER, S-9, AROCLOR 1254, Method: STANDARD PLATE.
The mark [11] stands for this setting: Test System: MOUSE LYMPHOMA, Strain/Indicator: L5178Y (TK+/TK-), Metabolic Activation: NONE, Method: SUSPENSION/PLATE.
The mark [12] stands for this setting: Test System: MOUSE LYMPHOMA, Strain/Indicator: L5178Y (TK+/TK-), Metabolic Activation: RAT, LIVER, S-9, AROCLOR 1254, Method: SUSPENSION/PLATE.
[13] abbreviates: Test System: AMES SALMONELLA TYPHIMURIUM, Strain/Indicator: TA100, Metabolic Activation: NONE, Method: PREINCUBATION

The source made the active and inactive calls. The rule behind the calls is not given here.

Turning to `O=P([O-])([O-])OC(CCO)CCO.O=P([O-])([O-])OCC(O)CO.[Mn+2].[Mn+2]`, the mutagenic call was “inactive; negative” under setting [1]; “inactive; negative” under setting [2]; “inactive; negative” under setting [3]; “inactive; negative” under setting [4]; “inactive; negative” under setting [5]; “inactive; negative” under setting [6]. The mutagenic call is, setting by setting: under setting [7], “inactive; negative”; under setting [8], “inactive; negative”; under setting [9], “inactive; negative”; under setting [10], “inactive; negative”; (Test System: E. COLI, Strain/Indicator: WP2, Metabolic Activation: NONE, Method: STANDARD PLATE) “inactive; negative”; (Test System: E. COLI, Strain/Indicator: WP2, Metabolic Activation: RAT, LIVER, S-9, AROCLOR 1254, Method: STANDARD PLATE) “inactive; negative”.

`Cc1ccc2cc3c(c4c2c1CC4)[C@@H](O)[C@@H](O)c1ccccc1-3`: the mutagenic call (Test System: CHINESE HAMSTER V-79, Strain/Indicator: V-79/8-AZAGUANINE, Metabolic Activation: NONE, Method: STANDARD PLATE) was “active; positive”.

For the compound `CN(C)CCNC(=O)c1cccc2c1C(=O)c1ccccc1C2=O`, the mutagenic call under setting [7] is “active; positive”.

As to `C[CH2][Ge]([Cl])([CH2]C)[CH2]C`, the mutagenic call is, setting by setting: (Test System: AMES SALMONELLA TYPHIMURIUM, Strain/Indicator: TA98, Metabolic Activation: HAMSTER, LIVER, S-9, AROCLOR 1254 (10%), Method: STANDARD PLATE) “inactive; negative”; under setting [1], “inactive; negative”; (Test System: AMES SALMONELLA TYPHIMURIUM, Strain/Indicator: TA98, Metabolic Activation: RAT, LIVER, S-9, AROCLOR 1254 (10%), Method: STANDARD PLATE) “inactive; negative”; (Test System: AMES SALMONELLA TYPHIMURIUM, Strain/Indicator: TA100, Metabolic Activation: HAMSTER, LIVER, S-9, AROCLOR 1254 (10%), Method: STANDARD PLATE) “inactive; negative”; under setting [3], “inactive; negative”; (Test System: AMES SALMONELLA TYPHIMURIUM, Strain/Indicator: TA100, Metabolic Activation: RAT, LIVER, S-9, AROCLOR 1254 (10%), Method: STANDARD PLATE) “inactive; negative”. Further, the mutagenic call is, setting by setting: (Test System: AMES SALMONELLA TYPHIMURIUM, Strain/Indicator: TA1535, Metabolic Activation: HAMSTER, LIVER, S-9, AROCLOR 1254 (10%), Method: STANDARD PLATE) “inactive; negative”; under setting [5], “inactive; negative”; (Test System: AMES SALMONELLA TYPHIMURIUM, Strain/Indicator: TA1535, Metabolic Activation: RAT, LIVER, S-9, AROCLOR 1254 (10%), Method: STANDARD PLATE) “inactive; negative”; (Test System: AMES SALMONELLA TYPHIMURIUM, Strain/Indicator: TA1537, Metabolic Activation: HAMSTER, LIVER, S-9, AROCLOR 1254 (10%), Method: STANDARD PLATE) “inactive; negative”; under setting [7], “inactive; negative”; (Test System: AMES SALMONELLA TYPHIMURIUM, Strain/Indicator: TA1537, Metabolic Activation: RAT, LIVER, S-9, AROCLOR 1254 (10%), Method: STANDARD PLATE) “inactive; negative”. The mutagenic call runs as follows: (Test System: AMES SALMONELLA TYPHIMURIUM, Strain/Indicator: TA1538, Metabolic Activation: HAMSTER, LIVER, S-9, AROCLOR 1254 (10%), Method: STANDARD PLATE) “inactive; negative”; under setting [9], “inactive; negative”; (Test System: AMES SALMONELLA TYPHIMURIUM, Strain/Indicator: TA1538, Metabolic Activation: RAT, LIVER, S-9, AROCLOR 1254 (10%), Method: STANDARD PLATE) “inactive; negative”; under setting [11], “inactive; negative. reevaluation of results: inconclusive”; under setting [12], “inactive; negative. reevaluation of results: negative”.

For `OC[C@H]1O[C@@H](n2cnc3c2ncn2ccnc32)[C@H](O)[C@@H]1O`, under setting [13], the mutagenic call was “inactive; negative”.

As for `Clc1cc(Cl)c(Cl)cc1Cl`, the mutagenic call is, setting by setting: (End Point: IN VITRO CHROMOSOMAL ABERRATIONS, Test System: CHO-LB CELLS, Metabolic Activation: NONE) “inactive; negative”; (End Point: IN VITRO CHROMOSOMAL ABERRATIONS, Test System: CHO-LB CELLS, Metabolic Activation: RAT, LIVER, S-9, AROCLOR 1254) “inactive; negative”; (Test System: AMES SALMONELLA TYPHIMURIUM, Strain/Indicator: TA98, Metabolic Activation: HAMSTER, LIVER, S-9, AROCLOR 1254, Method: STANDARD PLATE) “inactive; negative”; under setting [1], “inactive; negative”; under setting [2], “inactive; negative”; (Test System: AMES SALMONELLA TYPHIMURIUM, Strain/Indicator: TA100, Metabolic Activation: HAMSTER, LIVER, S-9, AROCLOR 1254, Method: STANDARD PLATE) “inactive; negative”. The mutagenic call is “inactive; negative” under setting [3]; “inactive; negative” under setting [4]; “inactive; negative” (Test System: AMES SALMONELLA TYPHIMURIUM, Strain/Indicator: TA1535, Metabolic Activation: HAMSTER, LIVER, S-9, AROCLOR 1254, Method: STANDARD PLATE); “inactive; negative” under setting [5]; “inactive; negative” under setting [6]; “inactive; negative” (Test System: AMES SALMONELLA TYPHIMURIUM, Strain/Indicator: TA1537, Metabolic Activation: HAMSTER, LIVER, S-9, AROCLOR 1254, Method: STANDARD PLATE). Besides, the mutagenic call under setting [7] was “inactive; negative”; the mutagenic call under setting [8] is “inactive; negative”; the mutagenic call (Test System: AMES SALMONELLA TYPHIMURIUM, Strain/Indicator: TA1538, Metabolic Activation: HAMSTER, LIVER, S-9, AROCLOR 1254, Method: STANDARD PLATE) was “inactive; negative”; the mutagenic call under setting [9] was “inactive; negative”; the mutagenic call under setting [10] was “inactive; negative”; the mutagenic call under setting [11] is “inactive; negative. reevaluation of results: negative”. Under setting [12], the mutagenic call is “inactive; negative. reevaluation of results: negative”.

For the compound `CC[C@@]1(O)C(=O)OCc2c1cc1n(c2=O)Cc2cc3c(CN(C)C)c(O)ccc3nc2-1`, the mutagenic call (Test System: CHINESE HAMSTER V-79, Strain/Indicator: V-79 (HPRT)/6-THIOGUANINE, Metabolic Activation: NONE) was “active; positive”.

With `O=S(=O)(O)c1ccc2cc(Oc3ccc4cc(S(=O)(=O)O)ccc4c3)ccc2c1`, the mutagenic call (Test System: AMES SALMONELLA TYPHIMURIUM, Strain/Indicator: TA98, Metabolic Activation: NONE, Method: PREINCUBATION) was “inactive; negative”; the mutagenic call (Test System: AMES SALMONELLA TYPHIMURIUM, Strain/Indicator: TA98, Metabolic Activation: RAT, LIVER, S-9, PHENOBARBITAL, Method: PREINCUBATION) is “inactive; negative”; the mutagenic call under setting [13] is “inactive; negative”; the mutagenic call (Test System: AMES SALMONELLA TYPHIMURIUM, Strain/Indicator: TA100, Metabolic Activation: RAT, LIVER, S-9, PHENOBARBITAL, Method: PREINCUBATION) is “inactive; negative”.
